Laboratory results from publication PMC10458253, “Unraveling the In Vitro Toxicity Profile of Psychedelic 2C Phenethylamines and Their N-Benzylphenethylamine (NBOMe) Analogues” (Pharmaceuticals, 2023).

Key:
HepG2 cells [1] = assay: Effect of CYP inhibitors on drug cytotoxicity (resazurin reduction), HepG2; assay type: cell-based; settings: HepG2, 24 h, drug concentrations as given in the source; for change of resazurin reduction with ketoconazole vs drug alone: 1 μM ketoconazole; for change of resazurin reduction with quinidine vs drug alone: 10 μM quinidine; for change of resazurin reduction with ABT vs drug alone: 1000 μM ABT
Procedure: Analogously to the studies performed in the neuronal model, the impact of the CYP-mediated metabolism on the cytotoxicity of the tested drugs was also evaluated, in HepG2 cells, 24 h after exposure to the drugs in the presence or absence of different CYP inhibitors: 1000 μM ABT, 10 μM quinidine or 1 μM ketoconazole.
(§1) CYP inhibition assay was used to evaluate the drugs’ potential to inhibit drug-metabolizing enzymes. Accordingly, SH-SY5Y and HepG2 cells were seeded in 96-well cell culture plates and pre-incubated with 1000 µM ABT—a non-isoform specific CYP450 inhibitor, 10 µM quinidine—a CYP2D6 inhibitor or 1 µM ketoconazole—a CYP3A4 inhibitor. After 1 h, the drugs (0–500 µM) were co-incubated with the inhibitors for 24 h, at 37 °C, in a 5% CO2–95% air atmosphere. The drugs’ cytotoxicity was then assessed through the neutral red uptake assay for differentiated SH-SY5Y cells, and through the resazurin reduction assay for HepG2 cells, and the results were expressed as percentage of control cells. At least four independent experiments were performed, in triplicate.

[2] = tested on: differentiated SH-SY5Y cells; assay: Effect of CYP inhibitors on drug cytotoxicity (neutral red uptake), differentiated SH-SY5Y; assay type: cell-based; settings: 24 h, drug concentrations as given in the source; for change of neutral red uptake with ketoconazole vs drug alone: 10 μM ketoconazole (CYP3A4 inhibitor); for change of neutral red uptake with quinidine vs drug alone: 10 μM quinidine (CYP2D6 inhibitor); for change of neutral red uptake with ABT vs drug alone: 1000 μM ABT (non-selective CYP inhibitor)
Procedure: Differentiated SH-SY5Y cells were incubated with the drugs in the presence or absence of different CYP inhibitors: 1000 μM ABT, a non-selective CYP inhibitor, 10 μM quinidine, a specific CYP2D6 inhibitor, or 10 μM ketoconazole, a specific CYP3A4 inhibitor.
as §1

[3] = CHI on Immobilized Artificial Membrane (IAM) HPLC, Kpcell; assay type: physicochemical; settings: partition between internal and external cellular media; estimated from experimental CHI(IAM)
Procedure: The CHI on IAM (CHI (IAM)) values were determined from the experimental tR obtained on the HPLC system with an IAM.PC.DD2 column (100 × 4.6 mm, 10 µm, Regis Technologies, Inc., Morton Grove, IL, USA). […] The Log Kpcell (partition between internal and external cellular media) values were estimated from the drugs’ experimental CHI IAM values using Equations (2) and (3) described elsewhere. Log kIAM = 0.046 CHI(IAM) + 0.42(2) Log Kpcell = 1.1 Log kIAM(3)

hMAO-B = target: T1, hMAO-B (Homo sapiens, UniProt P27338); assay: biochemical; settings: read-out: % inhibition at 10 µM hMAO-B, kynuramine substrate
T1 construct: purchased Sigma Aldrich; host or cells: insect cells (BTI-TN-5B1-4), recombinant baculovirus
T1 sequence (P27338 1-520): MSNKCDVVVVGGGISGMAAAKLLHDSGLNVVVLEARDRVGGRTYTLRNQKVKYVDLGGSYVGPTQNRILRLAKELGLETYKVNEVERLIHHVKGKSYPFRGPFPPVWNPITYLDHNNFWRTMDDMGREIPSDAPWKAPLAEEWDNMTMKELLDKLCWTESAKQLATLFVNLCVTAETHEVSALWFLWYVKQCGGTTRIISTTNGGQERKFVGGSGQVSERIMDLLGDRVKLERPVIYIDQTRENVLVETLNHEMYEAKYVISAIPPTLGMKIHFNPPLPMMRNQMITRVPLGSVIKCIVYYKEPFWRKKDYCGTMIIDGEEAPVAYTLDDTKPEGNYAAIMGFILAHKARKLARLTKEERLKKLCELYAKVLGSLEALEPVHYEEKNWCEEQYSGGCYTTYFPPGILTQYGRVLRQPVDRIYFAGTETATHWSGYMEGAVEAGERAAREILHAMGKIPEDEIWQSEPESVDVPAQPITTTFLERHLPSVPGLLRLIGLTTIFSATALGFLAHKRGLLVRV
Procedure: The hMAO inhibitory activities were assessed in microsomal MAO isoforms, prepared from insect cells (BTI-TN-5B1-4) infected with recombinant baculovirus containing cDNA inserts for hMAO-A or hMAO-B, by measuring the enzymatic conversion rates of kynuramine into 4-hydroxyquinoline. […] All assays were performed in sodium phosphate buffer solution 50 mM pH 7.4.
The percentages of MAO inhibition of each compound were determined from three independent experiments performed in triplicate.

HepG2 cells [4] = assay: Resazurin reduction cytotoxicity assay, HepG2; assay type: cell-based; settings: HepG2, 24 h; for Top (maximal effect): maximum cell death of fitted curve; for EC50: Homo sapiens, cell death curves 0–2000 µM, read-out: EC50 (half-maximum-effect concentrations)
Procedure: HepG2 cells were acquired from the American Type Culture Collection (Manassas, VA, USA). Cells were cultured in 75 cm^2 flasks using DMEM—high glucose supplemented with a 10% heat inactivated FBS and 1% penicillin/streptomycin mixture, and maintained in a 5% CO2–95% air atmosphere, at 37 °C, until 80% confluence. Cells were routinely subcultured using trypsin-EDTA and, to avoid phenotypic alterations, used between passages 16 and 22. In all experiments, the cells were seeded at a density of 250,000 cells/cm^2 and used 24 h after seeding.
Neutral red uptake and resazurin reduction assays were performed after exposure of differentiated SH-SY5Y and HepG2 cells to the drugs under study. To obtain a concentration–response curve, a broad concentration range (0–2000 µM) was investigated, and cytotoxicity was evaluated 24 h after exposure in 96-well cell culture plates. As previously described, neutral red uptake assay is based on the incorporation of neutral red dye into the lysosomes of viable cells and the amount of dye incorporated represents the cells’ lysosomal functionality, and resazurin reduction assay is based on the irreversible reduction of resazurin dye to the fluorescent resorufin product by metabolically active cells.
Briefly, 24 h after being exposed to different concentrations of the compounds, differentiated SH-SY5Y cells were incubated with either neutral red (50 µg/mL) or resazurin (10 µg/mL) solutions for 90 min, at 37 °C, in a 5% CO2–95% air atmosphere. For HepG2 cells, 24 h after the exposure to the tested drugs, the cells were incubated with either neutral red (50 µg/mL) or resazurin (10 µg/mL) solutions for 45 and 60 min, respectively, at 37 °C, in a 5% CO2–95% air atmosphere.
In the neutral red uptake assay, at the end of the incubation period, the cell culture medium was removed and a solution of absolute ethyl alcohol/distilled water (1:1) with 5% acetic acid was added to extract the dye absorbed only by the viable cells. The absorbance was measured at 540 nm in a multi-well plate reader (PowerWaveX BioTek Instruments, Winooski, VT, USA). In the resazurin assay, at the end of the incubation period, the fluorescence was measured at 530 nm excitation and 590 nm emission wavelengths in a multi-well plate reader (PowerWaveX BioTek Instruments, Winooski, VT, USA).
The results were expressed as a percentage of control cells. At least four independent experiments were performed, in triplicate. For differentiated SH-SY5Y cells, the neutral red uptake assay was identified as the most sensitive assay and, therefore, used for the subsequent experiments. On the other hand, for HepG2 cells, the resazurin reduction assay was identified as the most sensitive assay and, therefore, used for the subsequent experiments.

SMILES	change of resazurin reduction with ketoconazole vs drug alone (HepG2 cells [1])	change of resazurin reduction with quinidine vs drug alone (HepG2 cells [1])	change of resazurin reduction with ABT vs drug alone (HepG2 cells [1])	change of neutral red uptake with ketoconazole vs drug alone [2]	change of neutral red uptake with quinidine vs drug alone [2]	change of neutral red uptake with ABT vs drug alone [2]	Kpcell [3]	inhibition at 10 µM (hMAO-B)	Bottom (baseline) (HepG2 cells [4])	Hill Slope (HepG2 cells [4])	Top (maximal effect) (HepG2 cells [4])	EC50 (HepG2 cells [4])	cytotoxicity (in words) (HepG2 cells [4]; 0–2000 µM)
COc1ccccc1CNCCc1cc(OC)c(OC)c(OC)c1 [Mescaline-NBOMe, 3,4,5-Trimethoxy-N-(2-methoxybenzyl)-β-phenethylamine]	no significant changes in resazurin reduction	no significant changes in resazurin reduction	small but significant decrease in resazurin reduction	small but significant decrease in neutral red uptake	significant decrease in the neutral red uptake	significant decrease in neutral red uptake	2.71	89%	−0.3754	3.411	87.43	426 µM	
COc1cc(CCN)c(OC)cc1Br [2C-B, 4-Bromo-2,5-dimethoxy-β-phenethylamine]	significant decrease in the cells’ metabolic capacity		small but significant decrease in resazurin reduction	small but significant decrease in neutral red uptake	significant decrease in the neutral red uptake		3.08	27.2%	1.072	3.731	89.29	206 µM	
COc1cc(CCNCc2ccccc2OC)c(OC)cc1Br [25B-NBOMe, 4-Bromo-2,5-dimethoxy-N-(2-methoxybenzyl)-β-phenethylamine]	significant decrease in the cells’ metabolic capacity		small but significant decrease in resazurin reduction		significant decrease in the neutral red uptake		9.08	33.9%	4.552	3.079	89.49	32.8 µM	
COc1cc(CCN)cc(OC)c1OC.Cl [Mescaline, 3,4,5-Trimethoxyphenethylamine hydrochloride]	No significant changes	No significant changes	No significant changes	small but significant decrease in neutral red uptake	significant decrease in the neutral red uptake			21.2%					not causing a significant cytotoxicity
COc1cc([N+](=O)[O-])c(OC)cc1CCNCc1ccccc1OC [25N-NBOMe, 4-Nitro-2-dimethoxy-N-(2-methoxybenzyl)-β-phenethylamine]	no significant changes in resazurin reduction	no significant changes in resazurin reduction	small but significant decrease in resazurin reduction	small but significant decrease in neutral red uptake	significant decrease in the neutral red uptake	significant decrease in neutral red uptake	5.05	25.5%	3.464	5.089	87.26	99.7 µM	
COc1cc([N+](=O)[O-])c(OC)cc1CCN [2C-N, 2,5-dimethoxy-4-nitrophenethylamine]	significant increase in the metabolic capacity of cells	significant increase in the metabolic capacity of cells			significant decrease in the neutral red uptake	significant increase in neutral red uptake	0.94	18%	0.2545	2.334	≈100	834 µM	
